Data from patent US6337417B1, “N-phenyltetrahydrophthalamic acid derivatives, methods of producing same, and herbicides containing same as effective components” (Central Glass Co., Ltd., priority 1994, dated 2002).

Assays:
Type in all cases: in vivo
Set-up in all cases: key: 5: completely killed; 4: seriously injured; 3: considerably injured; 2: somewhat injured; 1: slightly injured; 0: not injured (normally grown)
[1] = test system: mehishiba (henry crabgrass, Digitaria cliaris); test: Experiment 5 foliage treatment: mehishiba; settings: foliage spray of wettable powder suspension, evaluated 4 weeks after treatment
Summary of the method: (§1)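 Compounds sprayed as wettable powder suspension onto pot-grown plants at the two- to three-leaf stage. Plants kept in a glasshouse and herbicidal effect scored 4 weeks after treatment.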

[2] = test system: aobiyu (slender amaranth, Amaranthus viridis); test: Experiment 5 foliage treatment: aobiyu; settings: foliage spray of wettable powder suspension, evaluated 4 weeks after treatment
Summary of the method: as §1

[3] = test system: onamomi (heartleaf cocklebur, Xanthium strumarium); test: Experiment 6 foliage treatment: onamomi; settings: foliage spray of wettable powder suspension, evaluated 4 weeks after treatment
Method: (§2) Upon seedling stage (two- or three-leaved stage) of ichibi (velvetleaf, Abutilon theophrasti), onamomi (heartleaf cocklebur, Xanthium strumarium) (4 L stage), noasagao (blue morningglory, Ipomoea indica) and ooinutade (pale smartweed, Persicaria lapathifolia) which were grown on a cultivated soil put in pots of 1/8850 ares, a selected compound obtained in a manner analogous to Example 11, in suspended wettable powder, was sprayed to each plant. After that, the pots were kept in a glass chamber to allow each plant to grow, and after the lapse of 4 weeks from the treatment with the selected compounds the herbicidal effects were evaluated. The evaluation of the herbicidal effects was similarly conducted as that of Experiment 1.

[4] = test system: tamagayatsuri (small-flowered umbrellaplant, Cyperus difformis); test: Experiment 4 flooded soil treatment: tamagayatsuri; settings: 4 weeks after treatment
Source text: (§3) Paddy soil (clay loam) was put into a pot so as to have a surface area of 1/15500 ares. Uniformly mixed seeds of several kinds of weeds, viz., nobie (barnyardgrass, Echinochloa spp.), broad-leaved weeds, hotarui (bulrush, Scirpus juncoides) and tamagayatsuri (small-flowered umbrellaplant, Cyperus difformis), were sown in the surface layer of the soil in each pot, and then paddy rice seedlings at the two- or three-leaved stage were transplanted into each pot to a depth of 2 cm, and water was fed into each pot so as to provide a 3 cm deep water layer on the soil surface. After 3 days, in other words at the initial stage of germination of nobie (barnyardgrass, Echinochloa spp.), a predetermined amount of a selected compound obtained in a manner analogous to Example 11 in the form of diluted aqueous solution was dropped into the water layer in each pot. After that, the pots were kept in a glass chamber to allow the paddy rice and the weeds to grow, and after the lapse of 4 weeks from the treatment with the selected compounds, the herbicidal effects and the degree of injury to the paddy rice were evaluated. The evaluation of the herbicidal effects was similarly conducted as to that of Experiment 1.

paddy rice = test: Experiment 4 flooded soil treatment: injury to paddy rice; settings: 4 weeks after treatment
Source text: as §3

[5] = test system: nobie (barnyardgrass, Echinochloa spp.); test: Experiment 4 flooded soil treatment: nobie; settings: 4 weeks after treatment
Source text: as §3

[6] = test system: cockspur (Panicum crus-galli); test: Experiment 5 foliage treatment: cockspur; settings: foliage spray of wettable powder suspension, evaluated 4 weeks after treatment
Summary of the method: as §1

garden radish = test: Experiment 5 foliage treatment: garden radish; settings: foliage spray of wettable powder suspension, evaluated 4 weeks after treatment
Summary of the method: as §1

[7] = test system: noasagao (blue morningglory, Ipomoea indica); test: Experiment 6 foliage treatment: noasagao; settings: foliage spray of wettable powder suspension, evaluated 4 weeks after treatment
Method: as §2

rice = test: Experiment 5 foliage treatment: rice; settings: foliage spray of wettable powder suspension, evaluated 4 weeks after treatment
Summary of the method: as §1

[8] = test system: ooinutade (pale smartweed, Persicaria lapathifolia); test: Experiment 6 foliage treatment: ooinutade; settings: foliage spray of wettable powder suspension, evaluated 4 weeks after treatment
Method: as §2

[9] = test system: hotarui (bulrush, Scirpus juncoides); test: Experiment 4 flooded soil treatment: hotarui; settings: 4 weeks after treatment
Source text: as §3

broad-leaved weeds = test: Experiment 4 flooded soil treatment: broad-leaved weeds; settings: 4 weeks after treatment
Source text: as §3

[10] = test system: ichibi (velvetleaf, Abutilon theophrasti); test: Experiment 6 foliage treatment: ichibi; settings: foliage spray of wettable powder suspension, evaluated 4 weeks after treatment
Method: as §2

Compound: C#CC(C)Oc1cc(N(C(=O)C2=C(C(=O)OCCOCC)CCCC2)C(=O)c2cccnc2)c(F)cc1Cl (centres unmarked) [compound 60]
- Herbicidal Effect mehishiba ([1]; 40 g/10a): 4
- Herbicidal Effect mehishiba ([1]; 80 g/10a): 5
- Herbicidal Effect aobiyu ([2]; 40 g/10a): 5
- Herbicidal Effect aobiyu ([2]; 80 g/10a): 5
- Herbicidal Effect onamomi ([3]; 4 g/10a): 5
- Herbicidal Effect onamomi ([3]; 8 g/10a): 5
- Herbicidal Effect tamagayatsuri ([4]; 3.13 g/10a): 5
- Herbicidal Effect tamagayatsuri ([4]; 6.25 g/10a): 5
- Injury of Paddy (paddy rice; 3.13 g/10a): 0.5
- Injury of Paddy (paddy rice; 6.25 g/10a): 0.5
- Herbicidal Effect nobie ([5]; 3.13 g/10a): 5
- Herbicidal Effect nobie ([5]; 6.25 g/10a): 5
- Herbicidal Effect cockspur ([6]; 40 g/10a): 1
- Herbicidal Effect cockspur ([6]; 80 g/10a): 1
- Herbicidal Effect garden radish (garden radish; 40 g/10a): 5
- Herbicidal Effect garden radish (garden radish; 80 g/10a): 5
- Herbicidal Effect noasagao ([7]; 4 g/10a): 5
- Herbicidal Effect noasagao ([7]; 8 g/10a): 5
- Herbicidal Effect rice (rice; 40 g/10a): 2
- Herbicidal Effect rice (rice; 80 g/10a): 4
- Herbicidal Effect ooinutade ([8]; 4 g/10a): 5
- Herbicidal Effect ooinutade ([8]; 8 g/10a): 5
- Herbicidal Effect hotarui ([9]; 3.13 g/10a): 4.5
- Herbicidal Effect hotarui ([9]; 6.25 g/10a): 4.5
- Herbicidal Effect broad-leaved weed (broad-leaved weeds; 3.13 g/10a): 5
- Herbicidal Effect broad-leaved weed (broad-leaved weeds; 6.25 g/10a): 5
- Herbicidal Effect ichibi ([10]; 4 g/10a): 5
- Herbicidal Effect ichibi ([10]; 8 g/10a): 5

Compound: COC(=O)C1=C(C(=O)N(C(=O)c2cccnc2)c2cc(C(=O)OC)c(Cl)cc2F)CCCC1 [compound 64]
- Herbicidal Effect mehishiba ([1]; 40 g/10a): 1
- Herbicidal Effect mehishiba ([1]; 80 g/10a): 2
- Herbicidal Effect aobiyu ([2]; 40 g/10a): 5
- Herbicidal Effect aobiyu ([2]; 80 g/10a): 5
- Herbicidal Effect onamomi ([3]; 4 g/10a): 4
- Herbicidal Effect onamomi ([3]; 8 g/10a): 5
- Herbicidal Effect tamagayatsuri ([4]; 3.13 g/10a): 4
- Herbicidal Effect tamagayatsuri ([4]; 6.25 g/10a): 4
- Injury of Paddy (paddy rice; 3.13 g/10a): 0
- Injury of Paddy (paddy rice; 6.25 g/10a): 0.5
- Herbicidal Effect nobie ([5]; 3.13 g/10a): 5
- Herbicidal Effect nobie ([5]; 6.25 g/10a): 5
- Herbicidal Effect cockspur ([6]; 40 g/10a): 1
- Herbicidal Effect cockspur ([6]; 80 g/10a): 1
- Herbicidal Effect garden radish (garden radish; 40 g/10a): 5
- Herbicidal Effect garden radish (garden radish; 80 g/10a): 5
- Herbicidal Effect noasagao ([7]; 4 g/10a): 4
- Herbicidal Effect noasagao ([7]; 8 g/10a): 5
- Herbicidal Effect rice (rice; 40 g/10a): 1
- Herbicidal Effect rice (rice; 80 g/10a): 1
- Herbicidal Effect ooinutade ([8]; 4 g/10a): 5
- Herbicidal Effect ooinutade ([8]; 8 g/10a): 5
- Herbicidal Effect hotarui ([9]; 3.13 g/10a): 4
- Herbicidal Effect hotarui ([9]; 6.25 g/10a): 4
- Herbicidal Effect broad-leaved weed (broad-leaved weeds; 3.13 g/10a): 5
- Herbicidal Effect broad-leaved weed (broad-leaved weeds; 6.25 g/10a): 5
- Herbicidal Effect ichibi ([10]; 4 g/10a): 5
- Herbicidal Effect ichibi ([10]; 8 g/10a): 5
